Measurements: patent publication US11969428B2, “Methods and pharmaceutical compositions for treating lymphoid malignancy” (priority 2011, dated 2024)

Tests used:
Test in all cases: Ambit KinomeScan screening
Type in all cases: binding
Details in all cases: CAL-130 10 μM
ABL1(E255K) = molecular target: T1, ABL1(E255K) (Homo sapiens, UniProt P00519, E255K)
T1 construct: unspecified tag ("tagged kinases"); purchased Ambit (KinomeScan screening)
Procedure, shortened: (§1)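 Displacement of tagged kinase from bait ligand on solid support was assessed using 10 μM CAL-130. Each value is the fraction of control binding retained, expressed in percent; a cutoff of >35% defines no hit.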

ADCK3 = molecular target: T2, ADCK3 (Homo sapiens, UniProt Q8NI60)
T2 construct: purchased Ambit (KinomeScan screening)
Procedure, shortened: as §1

AMPK-α1 = molecular target: T3, AMPK-α1 (Homo sapiens, UniProt Q13131)
T3 construct: purchased Ambit (KinomeScan screening)
Procedure, shortened: as §1

BRSK1 = molecular target: T4, BRSK1 (Homo sapiens, UniProt Q8TDC3)
T4 construct: unspecified tag ("tagged kinases"); purchased Ambit (KinomeScan screening)
Procedure, shortened: as §1

CDK2 = molecular target: T5, CDK2 (Homo sapiens, UniProt P24941)
T5 construct: purchased Ambit (KinomeScan screening)
Procedure, shortened: as §1

EGFR(E746-A750DEL) = molecular target: T6, EGFR(E746-A750DEL) (Homo sapiens, UniProt P00533, DEL746-750)
T6 construct: unspecified tag; purchased Ambit (KinomeScan screening service)
Procedure, shortened: as §1

EGFR(S752-I759DEL) = molecular target: T7, EGFR(S752-I759DEL) (Homo sapiens, UniProt P00533, DEL752-759)
T7 construct: unspecified tag; purchased Ambit (KinomeScan screening service)
Procedure, shortened: as §1

EPHB2 = molecular target: T8, EPHB2 (Homo sapiens, UniProt P29323)
T8 construct: purchased Ambit (KinomeScan screening service)
Procedure, shortened: as §1

ERBB3 = molecular target: T9, ERBB3 (Homo sapiens, UniProt P21860)
T9 construct: unspecified tag ("tagged kinases"); purchased Ambit (KinomeScan screening service)
Procedure, shortened: as §1

ERK8 = molecular target: T10, ERK8 (Homo sapiens, UniProt Q8TD08)
T10 construct: unspecified tag ("tagged kinases"); purchased Ambit (KinomeScan screening service)
Procedure, shortened: as §1

FER = molecular target: T11, FER (Homo sapiens, UniProt P16591)
T11 construct: unspecified tag ("tagged kinases"); purchased Ambit (KinomeScan screening service)
Procedure, shortened: as §1

FLT4 = molecular target: T12, FLT4 (Homo sapiens, UniProt P35916)
T12 construct: unspecified tag ('tagged kinases'); purchased Ambit (KinomeScan screening service)
Procedure, shortened: as §1

IRAK1 = molecular target: T13, IRAK1 (Homo sapiens, UniProt P51617)
T13 construct: Ambit (KinomeScan screening)
Procedure, shortened: as §1

ITK = molecular target: T14, ITK (Homo sapiens, UniProt Q08881)
T14 construct: purchased Ambit (KinomeScan screening)
Procedure, shortened: as §1

JAK1(JH2domain) = molecular target: T15, JAK1(JH2domain) (Homo sapiens, UniProt P23458)
T15 construct: JAK1(JH2domain); purchased Ambit (KinomeScan screening)
Procedure, shortened: as §1

MAP3K3 = molecular target: T16, MAP3K3 (Homo sapiens, UniProt Q99759)
T16 construct: Ambit (KinomeScan screening)
Procedure, shortened: as §1

MKNK2 = molecular target: T17, MKNK2 (Homo sapiens, UniProt Q9HBH9)
T17 construct: unspecified tag ('tagged kinases'); purchased Ambit (KinomeScan screening)
Procedure, shortened: as §1

MUSK = molecular target: T18, MUSK (Homo sapiens, UniProt O15146)
T18 construct: unspecified tag; purchased Ambit (KinomeScan screening panel)
Procedure, shortened: as §1

NDR1 = molecular target: T19, NDR1 (Homo sapiens, UniProt Q15208)
T19 construct: unspecified tag; purchased Ambit (KinomeScan screening panel)
Procedure, shortened: as §1

NEK1 = molecular target: T20, NEK1 (Homo sapiens, UniProt Q96PY6)
T20 construct: unspecified tag; purchased Ambit (KinomeScan screening panel)
Procedure, shortened: as §1

NEK2 = molecular target: T21, NEK2 (Homo sapiens, UniProt P51955)
T21 construct: unspecified tag; purchased Ambit (KinomeScan screening panel)
Procedure, shortened: as §1

PAK2 = molecular target: T22, PAK2 (Homo sapiens, UniProt Q13177)
T22 construct: purchased Ambit (KinomeScan screening service)
Procedure, shortened: as §1

PFTAIRE2 = molecular target: T23, PFTAIRE2 (Homo sapiens, UniProt Q96Q40)
T23 construct: unspecified tag ('tagged kinases'); purchased Ambit (KinomeScan screening)
Procedure, shortened: as §1

PLK2 = molecular target: T24, PLK2 (Homo sapiens, UniProt Q9NYY3)
T24 construct: purchased Ambit (KinomeScan screening service)
Procedure, shortened: as §1

RIPK1 = molecular target: T25, RIPK1 (Homo sapiens, UniProt Q13546)
T25 construct: unspecified tag (tagged kinase); purchased Ambit (KinomeScan screening)
Procedure, shortened: as §1

RIPK4 = molecular target: T26, RIPK4 (Homo sapiens, UniProt P57078)
T26 construct: unspecified tag (tagged kinase); purchased Ambit (KinomeScan screening)
Procedure, shortened: as §1

SgK085 = molecular target: T27, SgK085 (Homo sapiens, UniProt Q86YV6)
T27 construct: tag, kind not specified; purchased Ambit (KinomeScan screening service)
Procedure, shortened: as §1

SgK110 = molecular target: T28, SgK110 (Homo sapiens, UniProt P0C264)
T28 construct: tag, kind not specified; purchased Ambit (KinomeScan screening service)
Procedure, shortened: as §1

TAK1 = molecular target: T29, TAK1 (Homo sapiens, UniProt O43318)
T29 construct: tag (kind not specified); purchased Ambit (KinomeScan screening service)
Procedure, shortened: as §1

TAOK1 = molecular target: T30, TAOK1 (Homo sapiens, UniProt Q7L7X3)
T30 construct: tag (kind not specified); purchased Ambit (KinomeScan screening service)
Procedure, shortened: as §1

TSSK1B = molecular target: T31, TSSK1B (Homo sapiens, UniProt Q9BXA7)
T31 construct: tag, kind not specified; purchased Ambit (KinomeScan screening service)
Procedure, shortened: as §1

TTK = molecular target: T32, TTK (Homo sapiens, UniProt P33981)
T32 construct: tag, kind not specified; purchased Ambit (KinomeScan screening service)
Procedure, shortened: as §1

VEGFR2 = molecular target: T33, VEGFR2 (Homo sapiens, UniProt P35968)
T33 construct: tag, kind not specified; purchased Ambit (KinomeScan screening service)
Procedure, shortened: as §1

YSK1 = molecular target: T34, YSK1 (Homo sapiens, UniProt O00506)
T34 construct: purchased Ambit (KinomeScan screening service)
Procedure, shortened: as §1

p38-γ = molecular target: T35, p38-γ (Homo sapiens, UniProt P53778)
T35 construct: purchased Ambit (KinomeScan screening service)
Procedure, shortened: as §1

p38-δ = molecular target: T36, p38-δ (Homo sapiens, UniProt O15264)
T36 construct: purchased Ambit (KinomeScan screening service)
Procedure, shortened: as §1

T9 sequence (P21860 20-1342): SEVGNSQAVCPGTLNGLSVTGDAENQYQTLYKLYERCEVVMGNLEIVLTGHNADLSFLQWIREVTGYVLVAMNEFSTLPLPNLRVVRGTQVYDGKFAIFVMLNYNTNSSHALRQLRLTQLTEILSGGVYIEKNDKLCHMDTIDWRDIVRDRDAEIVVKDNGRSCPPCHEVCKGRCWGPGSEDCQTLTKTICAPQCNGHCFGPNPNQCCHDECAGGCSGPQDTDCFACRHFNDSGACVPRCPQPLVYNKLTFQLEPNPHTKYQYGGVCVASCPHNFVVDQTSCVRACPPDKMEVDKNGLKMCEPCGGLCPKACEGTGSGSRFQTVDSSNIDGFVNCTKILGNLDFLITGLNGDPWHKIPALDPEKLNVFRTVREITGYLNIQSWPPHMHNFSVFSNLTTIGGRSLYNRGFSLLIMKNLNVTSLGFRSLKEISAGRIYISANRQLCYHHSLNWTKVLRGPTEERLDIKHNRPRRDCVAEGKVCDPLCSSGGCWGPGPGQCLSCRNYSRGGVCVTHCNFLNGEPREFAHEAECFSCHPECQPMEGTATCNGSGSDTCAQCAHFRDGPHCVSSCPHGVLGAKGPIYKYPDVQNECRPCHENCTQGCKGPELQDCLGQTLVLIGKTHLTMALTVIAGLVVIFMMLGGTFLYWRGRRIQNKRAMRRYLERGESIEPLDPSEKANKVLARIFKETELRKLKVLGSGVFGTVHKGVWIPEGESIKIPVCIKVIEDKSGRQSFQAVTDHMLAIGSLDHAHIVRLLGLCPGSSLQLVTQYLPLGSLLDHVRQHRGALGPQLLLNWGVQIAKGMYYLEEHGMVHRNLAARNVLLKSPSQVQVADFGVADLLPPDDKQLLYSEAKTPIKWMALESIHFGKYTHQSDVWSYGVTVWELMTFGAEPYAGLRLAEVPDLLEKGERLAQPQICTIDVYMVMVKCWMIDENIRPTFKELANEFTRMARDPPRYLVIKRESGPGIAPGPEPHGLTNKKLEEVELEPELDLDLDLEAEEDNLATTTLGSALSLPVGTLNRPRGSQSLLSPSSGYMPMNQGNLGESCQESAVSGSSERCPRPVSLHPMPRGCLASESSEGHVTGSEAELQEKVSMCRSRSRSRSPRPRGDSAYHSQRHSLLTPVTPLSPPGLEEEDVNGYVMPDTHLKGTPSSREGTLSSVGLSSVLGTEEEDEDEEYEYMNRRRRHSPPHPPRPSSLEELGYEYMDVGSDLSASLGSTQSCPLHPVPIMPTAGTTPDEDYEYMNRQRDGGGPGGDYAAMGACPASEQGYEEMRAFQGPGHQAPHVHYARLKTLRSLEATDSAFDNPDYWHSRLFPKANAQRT
T15 sequence (P23458 583-855 limits assumed): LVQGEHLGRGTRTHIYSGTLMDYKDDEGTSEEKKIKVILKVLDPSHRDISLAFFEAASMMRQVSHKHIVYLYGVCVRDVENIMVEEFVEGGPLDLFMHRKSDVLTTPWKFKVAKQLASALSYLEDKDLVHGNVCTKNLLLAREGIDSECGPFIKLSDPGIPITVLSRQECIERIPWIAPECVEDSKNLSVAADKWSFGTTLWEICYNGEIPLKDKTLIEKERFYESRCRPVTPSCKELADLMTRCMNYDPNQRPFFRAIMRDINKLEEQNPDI
T30 sequence (Q7L7X3 whole entry): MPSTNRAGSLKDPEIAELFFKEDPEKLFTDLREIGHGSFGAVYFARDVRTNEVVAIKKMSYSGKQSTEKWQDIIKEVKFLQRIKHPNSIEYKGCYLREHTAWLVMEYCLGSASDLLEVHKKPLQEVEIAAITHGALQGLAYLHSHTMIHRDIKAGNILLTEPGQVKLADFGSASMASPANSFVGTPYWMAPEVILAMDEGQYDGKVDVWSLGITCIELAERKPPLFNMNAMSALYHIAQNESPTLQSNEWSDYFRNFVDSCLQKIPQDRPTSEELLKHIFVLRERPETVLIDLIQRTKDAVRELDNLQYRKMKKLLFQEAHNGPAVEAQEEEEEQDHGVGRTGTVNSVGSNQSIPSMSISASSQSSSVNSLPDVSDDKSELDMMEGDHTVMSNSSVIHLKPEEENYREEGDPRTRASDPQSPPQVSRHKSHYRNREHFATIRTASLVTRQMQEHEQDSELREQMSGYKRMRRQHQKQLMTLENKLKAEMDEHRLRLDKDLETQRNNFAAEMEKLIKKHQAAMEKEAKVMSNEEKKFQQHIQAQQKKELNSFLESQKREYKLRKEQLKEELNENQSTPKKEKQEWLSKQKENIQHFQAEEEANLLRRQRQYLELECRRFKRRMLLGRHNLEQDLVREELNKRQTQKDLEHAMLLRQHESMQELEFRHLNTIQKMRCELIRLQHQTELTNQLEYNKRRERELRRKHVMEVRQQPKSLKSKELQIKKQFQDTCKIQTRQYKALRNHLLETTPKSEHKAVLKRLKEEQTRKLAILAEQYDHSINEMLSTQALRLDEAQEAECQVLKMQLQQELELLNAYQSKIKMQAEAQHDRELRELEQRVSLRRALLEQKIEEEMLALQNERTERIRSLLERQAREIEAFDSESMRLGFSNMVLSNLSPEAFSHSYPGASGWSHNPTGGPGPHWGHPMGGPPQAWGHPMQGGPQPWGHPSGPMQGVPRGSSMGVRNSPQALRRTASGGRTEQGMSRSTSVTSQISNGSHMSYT
T34 sequence (O00506 whole entry): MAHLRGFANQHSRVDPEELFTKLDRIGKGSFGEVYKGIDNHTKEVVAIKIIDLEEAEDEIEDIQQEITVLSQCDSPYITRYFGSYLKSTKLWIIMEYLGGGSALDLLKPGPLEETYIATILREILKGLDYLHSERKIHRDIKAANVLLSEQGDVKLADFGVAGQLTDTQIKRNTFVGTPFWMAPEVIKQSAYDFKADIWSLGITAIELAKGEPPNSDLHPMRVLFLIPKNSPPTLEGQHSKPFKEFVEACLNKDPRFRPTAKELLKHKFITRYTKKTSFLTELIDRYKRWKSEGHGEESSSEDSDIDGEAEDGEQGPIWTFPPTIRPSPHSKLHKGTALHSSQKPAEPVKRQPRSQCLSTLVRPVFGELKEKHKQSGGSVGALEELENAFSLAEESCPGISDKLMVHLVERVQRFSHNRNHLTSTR
T13 sequence (P51617 whole entry): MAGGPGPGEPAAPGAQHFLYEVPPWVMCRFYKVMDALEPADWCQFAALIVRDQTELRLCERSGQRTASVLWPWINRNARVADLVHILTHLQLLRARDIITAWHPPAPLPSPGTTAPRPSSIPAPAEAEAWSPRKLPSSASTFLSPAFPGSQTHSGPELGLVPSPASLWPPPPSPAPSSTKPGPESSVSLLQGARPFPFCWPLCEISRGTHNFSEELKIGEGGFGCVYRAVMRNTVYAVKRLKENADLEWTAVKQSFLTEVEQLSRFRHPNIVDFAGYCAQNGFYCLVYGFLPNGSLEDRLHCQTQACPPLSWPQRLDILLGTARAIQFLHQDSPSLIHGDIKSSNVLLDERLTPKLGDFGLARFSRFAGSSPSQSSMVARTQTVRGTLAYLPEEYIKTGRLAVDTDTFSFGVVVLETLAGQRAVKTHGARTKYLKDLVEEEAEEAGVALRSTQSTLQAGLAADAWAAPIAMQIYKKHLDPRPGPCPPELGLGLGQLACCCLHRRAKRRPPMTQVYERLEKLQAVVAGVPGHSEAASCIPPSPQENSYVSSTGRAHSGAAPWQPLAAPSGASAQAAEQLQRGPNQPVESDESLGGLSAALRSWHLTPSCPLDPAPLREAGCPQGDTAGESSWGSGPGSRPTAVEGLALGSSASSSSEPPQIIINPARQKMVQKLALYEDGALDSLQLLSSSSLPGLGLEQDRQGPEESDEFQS
T24 sequence (Q9NYY3 whole entry): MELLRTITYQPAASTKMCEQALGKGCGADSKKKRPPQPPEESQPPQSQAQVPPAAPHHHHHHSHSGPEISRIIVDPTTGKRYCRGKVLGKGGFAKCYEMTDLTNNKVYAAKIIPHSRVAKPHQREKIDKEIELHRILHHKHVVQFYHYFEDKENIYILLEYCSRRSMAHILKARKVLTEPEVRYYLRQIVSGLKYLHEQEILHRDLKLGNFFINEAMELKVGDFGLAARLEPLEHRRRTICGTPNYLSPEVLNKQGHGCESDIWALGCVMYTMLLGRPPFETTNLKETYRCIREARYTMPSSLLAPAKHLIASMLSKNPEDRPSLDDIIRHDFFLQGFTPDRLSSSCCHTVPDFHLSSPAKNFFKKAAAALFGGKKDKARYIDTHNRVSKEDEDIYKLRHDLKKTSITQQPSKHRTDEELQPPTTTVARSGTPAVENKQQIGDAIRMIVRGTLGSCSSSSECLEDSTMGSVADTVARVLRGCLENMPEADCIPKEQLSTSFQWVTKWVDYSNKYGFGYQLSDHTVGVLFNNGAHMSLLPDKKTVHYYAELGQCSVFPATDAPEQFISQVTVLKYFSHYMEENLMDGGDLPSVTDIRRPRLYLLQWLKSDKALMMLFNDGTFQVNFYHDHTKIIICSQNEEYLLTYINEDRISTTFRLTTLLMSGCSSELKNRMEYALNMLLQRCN
T36 sequence (O15264 whole entry): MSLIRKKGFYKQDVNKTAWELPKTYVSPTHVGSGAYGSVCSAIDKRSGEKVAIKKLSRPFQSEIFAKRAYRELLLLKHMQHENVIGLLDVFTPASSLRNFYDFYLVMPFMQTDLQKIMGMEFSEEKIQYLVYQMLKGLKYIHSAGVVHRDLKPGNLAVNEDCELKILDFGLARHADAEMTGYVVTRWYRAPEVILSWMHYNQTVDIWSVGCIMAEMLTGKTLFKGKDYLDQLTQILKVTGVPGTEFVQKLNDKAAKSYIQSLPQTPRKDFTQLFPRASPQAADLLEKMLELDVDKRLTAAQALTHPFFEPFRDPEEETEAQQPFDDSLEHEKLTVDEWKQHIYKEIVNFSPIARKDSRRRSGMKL

Cc1ccccc1-n1c(C(C)Nc2nc(N)nc3nc[nH]c23)nc2cccc(C)c2c1=O (stereo not drawn) [CAL-130]
Percent of Control Binding (ABL1(E255K)): 100%
Percent of Control Binding (ADCK3): 100%
Percent of Control Binding (AMPK-α1): 100%
Percent of Control Binding (BRSK1): 100%
Percent of Control Binding (CDK2): 100%
Percent of Control Binding (EGFR(E746-A750DEL)): 100%
Percent of Control Binding (EGFR(S752-I759DEL)): 100%
Percent of Control Binding (EPHB2): 100%
Percent of Control Binding (ERBB3): 100%
Percent of Control Binding (ERK8): 100%
Percent of Control Binding (FER): 100%
Percent of Control Binding (FLT4): 100%
Percent of Control Binding (IRAK1): 100%
Percent of Control Binding (ITK): 100%
Percent of Control Binding (JAK1(JH2domain)): 100%
Percent of Control Binding (MAP3K3): 100%
Percent of Control Binding (MKNK2): 16%
Percent of Control Binding (MUSK): 100%
Percent of Control Binding (NDR1): 100%
Percent of Control Binding (NEK1): 100%
Percent of Control Binding (NEK2): 100%
Percent of Control Binding (PAK2): 100%
Percent of Control Binding (PFTAIRE2): 100%
Percent of Control Binding (PLK2): 100%
Percent of Control Binding (RIPK1): 100%
Percent of Control Binding (RIPK4): 100%
Percent of Control Binding (SgK085): 100%
Percent of Control Binding (SgK110): 100%
Percent of Control Binding (TAK1): 100%
Percent of Control Binding (TAOK1): 100%
Percent of Control Binding (TSSK1B): 100%
Percent of Control Binding (TTK): 11%
Percent of Control Binding (VEGFR2): 100%
Percent of Control Binding (YSK1): 100%
Percent of Control Binding (p38-γ): 100%
Percent of Control Binding (p38-δ): 100%
